According to US5783599A, “Methods of treating cancer and viral infections with 5-iodo-6-amino-and 5-iodo-6-nitroso-1 2-benzopyrones” (priority 1996, dated 1998):
In brackets after ≈: the same amount, converted by molar mass. Entries after “also recorded” stand apart in the source; their conditions may differ. Like-named read-outs stand apart in the source and are kept apart here.

How the values were obtained:
[1] = Toxicity after intraperitoneal administration; format: in vivo, rat
Method: Toxicological tests administering 5-I-6-ABP to mice were performed under the following conditions.
[…] […] […] In in vitro experiments, it was shown that at the concentration 100 mg/kg corresponding to 0.35 mM, the antiviral effect is maximal.

Stability in solution = format: physicochemical
From the text: 5-I-6-ABP, is a reasonably soluble molecule. It can form approximately 0. […] Such solution would be reasonably stable for use as an intravenous infusion formulation. The parenteral route of administration seems to be the most likely effective mode of administration against cancer or HIV infections at any stage of the disease. […] 5-I-6-ABP is most probably also effective for treatment of AIDS related Kaposi's sarcoma of inner organs. Properly formulated, it will also effect skin disorders. The color of the compound in the solid state depends on particle size. Large crystals are a very deep brown, small crystals, a medium brown, and when pulverized, the material in all cases is orange-colored.

[2] = Passage of blood brain barrier; details: in vivo
HIV [3] = assay: Cytopathogenic effect of HIV on MT-2 cells; format: cell-based
HEp-2 cells = assay: DNA synthesis ([3H]deoxyadenosine incorporation) in HEp-2 cells; format: cell-based; details: Homo sapiens, 5-I-6-ABP 0.05 mM, 72 h, N=5, read-out: % Inhibition of DNA synthesis
From the text: (§1) In this study, the following cell lines were used. Cell line CG I, a non-tumorigenic hybrid of HeLa cells with normal human fibroblasts, and its is tumorigenic revertant counterpart, CG1 III, as described in Science, 215:252 (1982). These cells were obtained from UC Irvine. […] HEp-2 human epidermoid carcinoma cells were provided by Dr. L. Aurelian (University of Maryland). E-Ras cells were-obtained from University of Cincinnati and represent an endothelial cell line transfected with pSV2neo plasmid as described in Proc. Natl. Acad. Sci., 76:1373 (1979). This cell line contains several copies of the activated human Ha-ras oncogene.
(§2) Cells were seeded to 2 cm^2 wells of Falcon tissue culture plates at a density of 6000±650 cells per well. Inhibitors were added to the seeding suspensions from stock solutions of 100 mM 6-ABP in water or 50 mM 5-1-6-ABP in dimethylsulfoxide (DMSO). […] Growth media were Dulbeccos MEM (lines #1 and 2), and Dulbeccols Modified Eagle's Medium, containing 10% fetal bovine serum and penicillin (100 μg/ml) plus streptomycin (100 μg/ml). […] Cells were then lysed in 500 μl of 0.06M NaOH and the acid precipitable radioactivity was determined.

HIV [4] = assay: HIV proliferation in human lymphoblasts; format: cell-based
From the text: The HIV isolates used in these experiments are isolated from the blood of infected patients. After isolation, HIV infection is established in CEM cells, and these infected cells are used to produce a stock of HIV virus that is titered to measure the concentration of tissue culture infective doses (TCID).
The cells are placed in culture in medium containing IL-2, but in the absence of additional 5-I-6-ABP, and monitored at 6 days and 12 days for the production of HIV-p24 core antigen, or for measurements of particulate reverse transcriptase.
HIV p24 antigen is measured by ELISA, with a cutoff of 5 pgm/ml. Particulate reverse transcriptase is measured by centrifuging down free virus from tissue culture fluids, lysing HIV in a buffer containing detergent, magnesium, H3-labelled dTTP and poly rA.oligo dT primer, incubating for 1 hour, and measuring precipitable radioactivity, and is expressed as cpm per volume of HIV-containing medium.

HIV [5] = assay: Anti-HIV activity, overall comparison with 6-ABP; format: cell-based
14C cells = assay: DNA synthesis ([3H]deoxyadenosine incorporation) in 14C cells; format: cell-based; details: Rattus norvegicus, 5-I-6-ABP 0.05 mM, 72 h, N=5, read-out: % Inhibition of DNA synthesis
From the text: as §1, §2

HSV = HSV replication in infected cell culture; format: cell-based
Method: Herpes simplex virus (HSV) type 1 and 2 (F and G strains, respectively) were grown in HEp-2 cells and titered by plaque assay under liquid overlay as described in Proc. Natl. Acad. Sci., 83:2787 (1986). Virus titers for CMV are expressed as the highest dilution that causes 50% cytopathic effect (TCID50). Virus titers for HSV-1 and HSV-2 are expressed as […] per ml. HIV titers are expressed as syncytial forming units (SFU per ml), assayed on MT2 cells. Vero, HEp-2 or MRC-5 cells are exposed to various concentrations from 0.1 to 10 mM of 5-I-6-ABP in various time intervals before infecting them with HSV-1 or HSV-2 (5-10 PFU/cell). Virus titers are determined 24 hours later.

Rat-1 cells = assay: DNA synthesis ([3H]deoxyadenosine incorporation) in Rat-1 cells; format: cell-based; details: 5-I-6-ABP 0.05 mM, 72 h, N=5
From the text: as §1, §2

other enzymes = assay: Specificity towards other enzymes
[6] = Metabolic conversion in liver / intracellular oxidation and cell penetration
AA-2 or MT-2 cells = assay: Cell count and viability of AA-2 and MT-2 cells; format: cell-based, human
Method: The effects of 5-I-6-ABP treatment of AA-2 and MT-2 cells was directly analyzed by cell count and viability tests including cloning efficiency and trypan blue uptake. The AA2 or MT-2 cell culture having initial cell count per well 0.5×10^5 was submitted to treatment with 3 mM of 6-ABP and or with 0.1 mM of 5-I-6-ABP and compared to untreated cell culture. The cells were counted 4 days after the treatment with 5-I-6-ABP and 6-ABP.

Solubility = format: physicochemical; details: 25° C.
From the text: The color of the compound in the solid state depends on particle size. Large crystals are a very deep brown, small crystals, a medium brown, and when pulverized, the material in all cases is orange-colored.

GC1 III cells = assay: DNA synthesis ([3H]deoxyadenosine incorporation) in CG1 III cells; format: cell-based; details: Homo sapiens, 5-I-6-ABP 0.05 mM, 72 h, N=5
From the text: as §1, §2

E-Ras cells = assay: DNA synthesis ([3H]deoxyadenosine incorporation) in E-Ras cells; format: cell-based; details: 5-I-6-ABP 0.05 mM, 72 h, N=5
From the text: as §1, §2

CMV = CMV replication in infected cell culture; format: cell-based
virus = assay: Antiviral effect in in vitro experiments at 0.35 mM; format: cell-based; details: 100 mg/kg corresponding to 0.35 mM
CG1 I cells = assay: DNA synthesis ([3H]deoxyadenosine incorporation) in CG1 I cells; format: cell-based; details: Homo sapiens, 5-I-6-ABP 0.05 mM, 72 h, N=5
From the text: as §1, §2

Nc1ccc2oc(=O)ccc2c1I [5-I-6-ABP, 5-iodo-6-amino-1,2-benzopyrone]
toxic effects, chronic ([1]; chronic administration, 100 and 500 mg/kg, several weeks): did not show any toxic effects | toxic effects, subacute ([1]; rats, i.p., 100 and 59 mg/kg in DMSO once a day, four days): no apparent toxic effects | stability in water, ethanol and DMSO (Stability in solution; 25° C.): stable in all of these solvents | stability of aqueous solution (Stability in solution; about 0.4 mM in water, pH 7.2-7.9, room temperature): stable for months at room temperature | stability with respect to boiling water (Stability in solution; boiling water): stable with respect to boiling water | degraded (Stability in solution; water, kept in the dark, months at room temperature, read-out: decomposition in aqueous solution): < 0.1% | blood brain barrier passage [2]: appears to cross the blood brain barrier | cytopathogenic effect of HIV, effectiveness relative to 6-ABP (HIV [3]): nearly as effective | percent change in DNA synthesis vs control at 50 µM (HEp-2 cells): -52.4% | inhibition of HIV, duration (HIV [4]): temporary and reversible | anti-HIV activity (HIV [5]): specific, potent and non-toxic inhibitor; also recorded: highly effective against HIV | effectivity against HIV relative to 6-ABP (HIV [5]): 10-20 times | inhibition of HIV replication, reversibility (HIV [5]): temporary, reversible | percent change in DNA synthesis versus control at 50 µM (14C cells): -69.2% | HSV inhibition (HSV): specific, potent and non-toxic inhibitor | effect of cell type on inhibitory effect (HSV; Vero, HEp-2 or MRC-5 cells, 0.1 to 10 mM): not affected by cell type | inhibition at 50 µM (Rat-1 cells): -35.6% | activation or inhibition of other enzymes (other enzymes): no other enzymes are activated or inhibited | cell penetration ([6]; most mammalian cells, pH 7.2-7.4): to a limited degree | intracellular oxidation at 6-amino position ([6]; to 5-I-6-NOBP): rapid oxidation | metabolic conversion in the liver ([6]; to 5-I-6-nitroBP, per os): rapid conversion in the liver | cytotoxicity (AA-2 or MT-2 cells): does not involve cytotoxicity | effect on cell proliferation (AA-2 or MT-2 cells; 3 mM 6-ABP, 0.1 mM 5-I-6-ABP, 4 days): inhibitory effect on cell proliferation | solubility (Solubility; water, read-out: solubility in water (saturated)): 0.37 mM (≈ 106 µg/mL) | solubility (Solubility; organic solvent or mixture, DMSO, read-out: solubility in DMSO (saturated)): 1900 mM (≈ 545000 µg/mL) | solubility (Solubility; organic solvent or mixture, ethanol, read-out: solubility in ethanol (saturated)): 4.7 mM (≈ 1350 µg/mL) | toxicity (General toxicity): completely nontoxic; also recorded: absence of toxicity | inhibition at 50 µM (GC1 III cells): -64.4% | inhibition at 50 µM (E-Ras cells): -81.8% | CMV inhibition (CMV): specific, potent and non-toxic inhibitor; also recorded: effectively inhibits CMV growth | antiviral effect (virus): maximal | inhibition at 50 µM (CG1 I cells): -7.6%
